The test system of series [1] is apoC-III. The series can be described thus: Hepatic apoC-III gene expression in APOE*3Leiden transgenic mice on Western-type diet. Format: in vivo, mouse. To be noted: 0.3 mmol/kg bw/day orally as admix to WTD, 4 weeks. From the text:
The APOE*3Leiden transgenic mouse is expressing a variant of the human apolipoprotein E3 (APOE3), the APOE*3Leiden, in addition to the human apolipoprotein C1 (APOC1). […] In contrast to normal wild-type mice, the APOE*3Leiden transgenic mice are highly responsive to diet and hypolipidemic drugs affecting plasma VLDL and chylomicron levels (Van Vlijmen B et al, Diet-induced hyperlipoproteinemia and atherosclerosis in apolipoprotein E3-Leiden transgenic mice, J Clin Invest 1994; 93: 1403-1410; Groot PHE, et al. Quantitative assessment of aortic atherosclerosis in apoE3Leiden transgenic mice and its relationship to serum cholesterol exposure, Arterioscler Thromb Vase Biol 1996; 16: 926-933). Consequently, this model is appropriate to evaluate effects of lipid lowering drugs.
In this study, female APOE*3Leiden transgenic mice were put on a semi-synthetic Western-type diet (WTD; 15% cocoa butter, 40% sucrose and 0.25% cholesterol; all w/w). […]
Liver tissues were stored in RNA later (Qiagen) at −80° C. […] Each sample was measured in 3 parallels, and the results are presented as the mean value relative to control (WTD without addition), The fold change in gene expression was calculated by the ΔΔCt method, using Rplp0 as housekeeping gene and the mean of the control samples as calibrator.

The subject of series [2] is Apo C-III. The series can be described thus: Example 25C Phase Ib clinical study, hypercholesterolemia, 4 weeks. Format: in vivo, human. The conditions noted are these: 600 mg QD, male hypercholesterolemic subjects withdrawn from statin, statistically significant. As to the method:
This study investigated subjects with fasting LDL-C of at least […] (˜97 mg/dl). The objective of the study was to determine the pharmacodynamics and lipid lowering effects of Compound A (Example 2) following 4 weeks of treatment in male, hypercholesterolemic subjects withdrawn from stable statin therapy.
The population for this study consisted of men between 18 and 65 years of any ethnic origin and with a BMI between 18.0 and 35.0 kg/m^2.
This Phase Ib study consisted of a 4-5 week screening period, and a 4 week double-blind, randomized, placebo-controlled treatment period.
All subjects had to be on lipid-lowering statin therapy for at least 3 months prior to the first screening visit, and at stable statin dose for at least 4 weeks prior to the first screening vist.
Statin treatment was withdrawn at the first screening visit, and remained withdrawn for the entire screening period. […]
Blood lipids were measured at the end of the screening period and after 4 weeks of treatment, Exploratory pharmacodynamic measurements included LDL-C, VLDL-C, TC, TO, HDL-C, Non-HDL-C, and Apo B. The impact of Compound A on Apo C-III was also measured.
Summary statistics for baseline is given as mean with coefficient of variance. The mean changes from baseline with 95% confidence intervals were presented by treatment group for efficacy variables analyzed. […]

For series [3], the system named is plasma apoC-III and other lipid parameters. The series can be described thus: Example 25B Phase II clinical study, mixed dyslipidemia (TG 200-499 mg/dL) on statins, 12 weeks. To be noted: 600 mg QD. Format: in vivo, human. The method, then: This study investigated patients with fasting plasma TG levels between 200 and 499 mg/dL and non-high density lipoprotein cholesterol (non-HDL-C) above 130 mg/dL already receiving treatment with statins. The primary objective of this study was to evaluate the efficacy of Compound A (Example 2) 600 mg QD orally by assessment of the percentage change in triglycerides non-HDL-C from baseline after 12. weeks of treatment. One of the secondary objectives was to evaluate the impact of Compound A on plasma levels of apoC-III.
This Phase II, multicenter, proof of concept study consisted of a 6- to 8-week screening period (which included a 4- or 6-week diet and lifestyle stabilization/washout period and a 2-week TG and non-HDL-C qualifying period), and a 12-week, double-blind, randomized, parallel group, placebo-controlled treatment period.
After confirmation of qualifying fasting TG and non-HDL-C values, eligible subjects entered the 12-week, randomized, double-blind treatment period. At Visit 4 (Week 0), subjects were randomly assigned in a 1:1 ratio to 1 of the following treatment groups: Compound A 600 mg QD or placebo QD.
The population for this study was men and women (women of childbearing potential were required to use adequate methods to avoid pregnancy) between the ages of 18 to 79 years of age, inclusive. Subjects on stable lipid-lowering statin therapy and subjects not on non-statin lipid-lowering therapy were eligible to enroll in the study. Subjects were required to have an average fasting TG level between […] and non-HDL-C values above 130 mg/dL from Visit 2 and Visit 3 values or Visit 3 and Visit 3.1 values prior to randomization.
The ITT Population was the primary analysis population. All efficacy analyses were performed on the ITT Population.
(§1) Summary statistics (n, mean, standard deviation [SD], median, minimum, and maximum) for the baseline and post-baseline measurements, the percent changes, or changes from baseline were presented by treatment group and by visit for all efficacy variables analyzed.
The primary efficacy analysis was performed using an ANCOVA model with randomization as factor and baseline non-HDL-C value as a covariate. The least-squares means, standard errors, and 2-tailed 95% CIs for each treatment group and for the comparison between Compound A and placebo were provided.
The primary efficacy analysis was based on the […].
The population recruited for the current study included men (58.4%) and women ([…]) with a mean age of 58.3 years. All subjects were required to be on statin therapy (with or without ezetimibe) during the study. All other non-statin lipid-altering medications were discontinued at screening. Mean compliance to study medication during the study was 97.2% for the placebo group and 95.3% for the Compound A group.
The baseline mean non-HDL-C level for the study population was 165.9 mg/dL; the baseline median TG level was 262.0 mg/dL.

Series [4] shares this test system. The series can be described thus: Example 25A Phase II clinical study, severe hypertriglyceridemia (TG above 500 mg/dL), 12 weeks. Format: in vivo, human. To be noted: 600 mg QD. The method, then: This study investigated patients with fasting plasma triglyceride levels above 500 mg/dL The primary objective of this study was to evaluate the efficacy of Compound A (Example 2) 600 mg once daily (QD) orally by assessment of the percentage change in triglycerides (TG) from baseline after 12 weeks of treatment. One of the secondary objectives was to evaluate the impact of Compound A on plasma levels of apoC-III.
This Phase II, multicenter, proof of concept study consisted of a 6- to 8-week screening period (which included a 4- or 6-week diet and lifestyle stabilization/washout period and a 2-week TG qualifying period), and a 12-week, double-blind, randomized, parallel group, placebo-controlled treatment period.
After confirmation of qualifying fasting TG values, eligible subjects entered the 12-week, randomized, double-blind treatment period. At Visit 4 (Week 0), subjects were randomly assigned in a 1:1 ratio to 1 of the following treatment groups: Compound A 600 mg QD or placebo QD.
Approximately 43 subjects per treatment group (approximately 86 subjects total) were to be randomized in this study. Stratification was by baseline TG level (≤700 mg/dL or >700 mg/dL), statin use at randomization, and gender.
The population for this study was men and women (women of childbearing potential were required to use adequate methods to avoid pregnancy) between the ages of 18 to 79 years of age, inclusive. Subjects on stable lipid-lowering statin therapy and subjects not on non-statin therapy were eligible to enroll in the study. Subjects were required to have an average fasting TG level ≥500 mg/dL, and ≤1500 mg/dL from Visit 2 and Visit 3 values or Visit 3 and Visit 3.1 values prior to randomization.
The ITT Population was the primary analysis population, All efficacy analyses were performed on the ITT Population.
as §1
The primary efficacy analysis was performed using an analysis of covariance (ANCOVA) model with treatment, gender, and the use of statin therapy at randomization as factors and baseline TG value as a covariate. The least-squares means, standard errors, and 2-tailed 95% confidence intervals (CIs) for each treatment group and for the comparison between Compound A and placebo were provided.
An ANCOVA model was used for the analysis of secondary efficacy variables with treatment, gender, and the use of statin therapy at randomization as factors and the baseline value of the respective efficacy variable as a covariate.
The population recruited for the current study included men (69.0%) and women (31.0%) with a mean age of 52.5 years. approximately 21% of subjects in both treatment groups received statin therapy through the study. All other non-statin lipid-altering medications were discontinued at screening. Mean compliance to study medication during the study was 96.5% for the placebo group and 99.9% for the Compound A 600 mg group.

A short description of series [5]: In-vitro digestion studies in a bio relevant media. Format: in vitro ADME. An excerpt: Examples 1-23 are exemplary and one skilled in the art would understand how to apply these general methods to arrive at other compounds within the scope of Formula (I). Compounds of the present disclosure may be in the form of a pharmaceutically acceptable salt or ester. For example, the compounds of Formula (I) may be in the form of esters, such as a phospholipid, a glyceride or a C1-C6-alkyl ester. In at least one embodiment, the ester is chosen from a glyceride or a C1-C6-alkyl ester. In at least one embodiment, the ester is chosen from a triglyceride, a 1,2 diglyceride, a 1,3-diglyceride, a 1-monoglyceride, a 2-monoglyceride, a methyl ester, an ethyl ester, a propyl ester, a isopropyl ester, a n-butyl ester and a tert-butyl ester. In at least one embodiment, the compound of Formula (I) is present as a methyl ester, an ethyl ester, an isopropyl ester, a n-butyl ester or a tert-butyl ester, for example as a methyl ester or an ethyl ester.

Setting [6] is: mixed dyslipidemia, TG = 200-499 mg/dl, on statin, 12 weeks.
Setting [7] is: subjects with TG >500 mg/dl, 12 weeks.

SMILES strings stand for the structures.

For `CC/C=C\C/C=C\C/C=C\C/C=C\C/C=C\CCCCOC(CC)C(=O)O` (centres unmarked) [Compound A, 2-((5Z,8Z,11Z,14Z,17Z)-icosa-5,8,11,14,17-pentaen-1-yloxy)butanoic acid], the “effect on hepatic apoC-III expression compared with reference Compound 12” value in series [1] is on record as “more potent”. Also, the “hepatic apoC-III expression versus mice fed a standard WTD (FIG. 1)” value in series [1] (P<0.05, Student T-test) is “significantly lower”. Besides, the “mean percent change in Apo C-III vs baseline” value in series [2] is given as −42%. For the same compound, the “LS mean percent change in ApoC-III vs placebo” value in series [3] (12-week completer population, 95% CI (−28.8, −12.7)) is −20.8%. The “LS mean percent change in apoC-III vs baseline” value in series [3] (12-week completer population, 95% CI (−38.4, −26.6)) is listed as −32.5%. In series [3] (setting [6]), the “Apo B, median % change from baseline” value was −6%; the “ApoC-III, median % change from baseline” value is −35%; the “LDL-C, median % change from baseline” value is 0%; the “Non-HDL-C, median % change from baseline” value was −10%. Further, in series [3] (setting [6]), the “TG, median % change from baseline” value is listed as −43% and the “VLDL-C, median % change from baseline” value is recorded as −39%. Moreover, the “median reduction in apoC-III” value in series [3] (mixed dyslipidemic patient population) turned out to be 35%. Moreover, the “LS mean percent change in apoC-III versus placebo” value in series [4] (12 weeks, ITT Population, 95% CI (−46.5, −22.8)) is given as −34.7%. Further, the “LS mean percent change in apoC-III vs baseline” value in series [4] (12 weeks, ITT Population, 95% CI (−47.5, −28.5)) is given as −38.0%. For the same compound, the “median reduction in apoC-III” value in series [4] (severe HTG patient population) worked out at 41%. Besides, in series [4] (setting [7]), the “ApoC-III, median % change from baseline” value is −41%; the “HDL-C, median % change from baseline” value was 24%; the “LDL-C, median % change from baseline” value was found to be 43%; the “Non-HDL-C, median % change from baseline” value was −8%. In series [4] (setting [7]), the “TG, median % change from baseline” value is −51% and the “VLDL-C, median % change from baseline” value is recorded as −51%.
Consider `CC/C=C\C/C=C\C/C=C\C/C=C\C/C=C\CCCCOC(CC)C(=O)OCCCC` (centres unmarked) [Example 15, butyl 2-(((5Z,8Z,11Z,14Z,17Z)-icosa-5,8,11,14,17-pentaen-1-yl)oxy)butanoate], for which the “hydrolysis in the gastrointestinal tract, from in-vitro digestion” value in series [5] is recorded as “rapidly hydrolyzed”.
On the same count and under the same terms, as for `CC/C=C\C/C=C\C/C=C\C/C=C\C/C=C\CCCCOC(CC)C(=O)OCC` (centres unmarked) [Example 12, ethyl 2-((5Z,8Z,11Z,14Z,17Z)-icosa-5,8,11,14,17-pentaen-1-yloxy)butanoate], the entry is “rapidly hydrolyzed”.

Values taken from US20180110747A1, “USE OF THIA OXO COMPOUNDS FOR LOWERING APO C3” (Pronova Biopharma Norge AS, priority 2015, published 2018).
